{
  "source": "patent US6599896B1",
  "about": "(Les Laboratoires Servier, priority 1999, dated 2003)",
  "key": {"motoneurons": {"test_system": "motoneurons", "settings": "Duong et al., Br. J. Pharmacol., 128, 1385-1392; cited from earlier work"}, "mitochondrial genome": {"test_system": "mitochondrial genome", "assay": "In vivo expression of genes implicated in oxidative stress (RT-PCR, amygdala)", "settings": "rat, 15 mg/kg i.p. for 21 days", "procedure": "After sacrifice of the animals and removal of the brains, the total RNA of the amygdala region is extracted and then subjected to an RT-PCR test. In brief, reverse transcription is performed on the extracted RNA, the transcription products are then amplified by chain polymerisation (PCR) and then subjected to high-resolution polyacrylamide gel electrophoresis. The bands of interest are removed from the gel, re-amplified, sequenced and analysed."}, "AMPA/kainate receptors": {"test_system": "AMPA/kainate receptors", "assay": "Patch clamp: current induced by kainate in telencephalic cells in primary culture", "assay_type": "cell-based, rat", "procedure": "Telencephalic cells of 16.5 day-old Wistar rat fetuses were cultured for 12 days. Patch clamp experiments were then conducted at ambient temperature in the following medium: 5 mM KCl, 140 mM NaCl, 10 mM Hepes, 2 mM MgCl2, 2 mM CaCl2 and 10 mM D-glucose (pH=7.3), and the micropipettes were filled with 140 mM KCl, 4 mM NaCl, 10 mM Hepes, 5 mM EGTA and 0.5 mM CaCl2 (pH=7.2).\nThat effect is measured by the patch clamp technique."}, "astrocytes in culture": {"test_system": "astrocytes in culture", "assay": "ATP levels associated with hypoxia in astrocytes maintained in culture", "assay_type": "cell-based, rat", "settings": "hypoxia 24 hours", "procedure": "Cultures of astrocytes are obtained using new-born rats according to the technique described by Booher J. and Sensenbrenner M. (Neurobiology 2, 97-105, […]). They are used three weeks after being placed in culture. […] The concentration of ATP is determined by luminescence and expressed in picomoles of ATP per mg of cellular proteins. The experiments are conducted in triplicate."}, "[1]": {"test_system": "cortical neurons in culture", "assay": "In vitro neurotoxicity caused by hypoxia in cortical cells (LDH activity)", "assay_type": "cell-based, rat", "settings": "20 μM; 3 hours hypoxia, LDH after 24 hours", "procedure": "(§1) Cortical cells are extracted from Sprague-Dawley rat foetuses and cultured in MEM (minimum essential medium) containing 5% horse serum and 5% calf foetus serum.\nAfter morphological examination of the cells, the culture supernatants are collected and the lactate dehydrogenase (LDH) activity therein is measured."}, "[2]": {"test_system": "cortical neurons in culture", "assay": "In vitro neurotoxicity caused by glutamate in cortical cells (LDH activity)", "assay_type": "cell-based, rat", "settings": "20 μM; 1 mM glutamate 15 minutes", "procedure": "as §1\nJust before treatment with glutamate, the culture medium is replaced by 300 μl of saline solution buffered with HEPES. The cells are incubated for 15 minutes together with 1 mM glutamate. The culture media are then replaced by 200 μl of MEM without serum and the cells are incubated at 37° C. for 24 hours. After morphological examination of the cells, the culture supernatants are collected and the lactate dehydrogenase (LDH) activity therein is measured."}, "[3]": {"test_system": "purified embryonic motoneurons", "assay": "Death of motoneurons deprived of growth factors (survival count)", "assay_type": "cell-based, rat", "settings": "BDNF 1 ng/ml; 2.5 days of culture", "protocol": "Pregnant Sprague-Dawley rats are sacrificed on the 14th day of embryo life. The motoneurons of the embryos are purified according to the method published by C.\nThe motoneurons are seeded a density of approximately 1000 cells per 16-mm well and are cultured in Neurobasal, supplemented by B27 and horse serum. […] The surviving motoneurons are counted directly.\nAfter 2.5 days of culture, motoneurons are counted in 2 areas of each of the 4 wells. Absolute value per area are presented (mean+/−s.e.m., n=8)."}},
  "data": [
    {"molecule": "Cl.FC(F)(F)c1cccc(C2=CCN(CCc3ccc4ccccc4c3)CC2)c1", "note": "[SR57746A]", "values": [
      {"measurement": "activity on the survival of motoneurons in vitro", "setting": "motoneurons", "value": "active"}
    ]},
    {"molecule": "CN1c2ccccc2C(NCCCCCCC(=O)O)c2ccc(Cl)cc2S1(=O)=O", "note": "(stereo not drawn) [tianeptine]", "values": [
      {"measurement": "expression of mitochondrial genes in the amygdala", "setting": "mitochondrial genome", "value": "overexpression of the mitochondrial genes of NADH ubiquinone reductase (sub-units 2 and 5) and also of genes coding for 16S rRNA, leu-tRNA and val-tRNA"},
      {"measurement": "effect on the current entering the cells, compound on its own (direct agonism)", "setting": "AMPA/kainate receptors; 10 μM, without kainate", "value": "no effect"},
      {"measurement": "effect on the current induced by kainate", "setting": "AMPA/kainate receptors; 4, 10 and 25 μM, kainate 250 μM, FIG. 1", "value": "increases the current induced by kainate"},
      {"measurement": "percentage protection of astrocytes (ATP level)", "setting": "astrocytes in culture; 10 μM (maximal)", "value": 68, "unit": "%"},
      {"measurement": "protection of astrocytes (ATP level)", "setting": "astrocytes in culture; 0.1-1-10 μM, FIG. 4", "value": "protects astrocytes in culture in a dose-dependent manner"}
    ]},
    {"molecule": "C[C@]12N[C@H](Cc3ccccc31)c1ccccc12", "note": "[MK-801]", "values": [
      {"measurement": "protection against the effects of hypoxia (LDH activity)", "setting": "[1]", "value": 86.3, "unit": "%"},
      {"measurement": "protection against toxicity caused by glutamate (LDH activity)", "setting": "[2]", "value": "total protection"}
    ]},
    {"molecule": "Brain-Derived Neurotrophic Factor (protein, UniProt P23560 19-247, looked up, growth factor, 1 ng/ml, positive control for motoneuron survival) Neurotrophic factor BDNF …: APMKEANIRGQGGLAYPGVRTHGTLESVNGPKAGSRGLTSLADTFEHVIEELLDEDQKVRPNEENNKDADLYTSRVMLSSQVPLEPPLLFLLEEYKNYLDAANMSMRVRRHSDPARRGELSVCDSISEWVTAADKKTAVDMSGGTVTVLEKVPVSKGQLKQYFYETKCNPMGYTKEGCRGIDKRHWNSQCRTTQSYVRALTMDSKKRIGWRFIRIDTSCVCTLTIKRGR", "values": [
      {"measurement": "survival of motoneurons", "setting": "[3]", "value": "protect the motoneurons from cell death"}
    ]}
  ]
}
